We go through 5 compounds from ChEMBL document CHEMBL1667734, “Eutypoids B-E produced by a Penicillium sp. strain from the North Sea” (J Nat Prod, 2011).

The test system of one data set is Parastagonospora nodorum. Kind of data set: Antimicrobial activity against Septoria nodorum. It counts as functional, organism-based.
A further data set has as its system Nakaseomyces glabratus. Kind of data set: Antimicrobial activity against Candida glabrata DSM 6425. Type of data set: functional, organism-based.
The subject of the next data set is Ralstonia solanacearum. Kind of data set: Antimicrobial activity against Ralstonia solanacearum DSM 9544. It counts as functional, organism-based.
The test system of a further data set is Pseudomonas aeruginosa. Kind of data set: Antimicrobial activity against Pseudomonas aeruginosa DSM 50071. Type of data set: functional, organism-based.
The subject of data set [1] is Staphylococcus epidermidis. Kind of data set: Antimicrobial activity against Staphylococcus epidermidis DSM 20044. Type of data set: functional, organism-based.
For another data set, the system named is HT-29. Kind of data set: Cytotoxicity against human HT-29 cells after 24 hrs by celltiter-blue assay. It counts as functional, cell-based.
A further data set relates to Erwinia amylovora. Kind of data set: Antimicrobial activity against Erwinia amylovora DSM 50901. It counts as functional, organism-based.
Data set [2] in a line: Cytotoxicity against mouse NIH/3T3 cells after 24 hrs by celltiter-blue assay. It counts as cell-based. The settings on record: nih3t3, 24 h.
The next data set has as its system Zymoseptoria tritici. Kind of data set: Antimicrobial activity against Septoria tritici. Type of data set: functional, organism-based.
The test system of a further data set is Pseudomonas fluorescens. Kind of data set: Antimicrobial activity against Pseudomonas fluorescens NCIMB 10586. It counts as functional, organism-based.
The target of data set [3] is Glycogen synthase kinase-3 beta (Homo sapiens, UniProt P49841). Kind of data set: Inhibition of GSK3-beta by luminescent assay.
Glycogen synthase kinase-3 beta, sequence (P49841 whole entry): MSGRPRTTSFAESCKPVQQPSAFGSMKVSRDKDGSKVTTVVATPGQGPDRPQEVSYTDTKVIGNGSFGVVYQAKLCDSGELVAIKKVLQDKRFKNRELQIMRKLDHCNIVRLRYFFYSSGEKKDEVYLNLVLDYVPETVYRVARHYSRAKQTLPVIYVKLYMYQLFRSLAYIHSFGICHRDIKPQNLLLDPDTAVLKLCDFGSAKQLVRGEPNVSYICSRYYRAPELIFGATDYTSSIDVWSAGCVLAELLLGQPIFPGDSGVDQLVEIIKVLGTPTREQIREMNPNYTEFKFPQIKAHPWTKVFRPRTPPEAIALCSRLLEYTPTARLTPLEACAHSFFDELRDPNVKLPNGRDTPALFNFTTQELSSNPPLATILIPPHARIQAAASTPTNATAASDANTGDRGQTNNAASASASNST
For a further data set, the system named is Mammaliicoccus lentus. Kind of data set: Antimicrobial activity against Staphylococcus lentus DSM 6672. It counts as functional, organism-based.
Data set [4] concerns Pseudomonas syringae pv. aptata str. DSM 50252. Kind of data set: Antimicrobial activity against Pseudomonas syringae pv aptata DSM 50252. It counts as functional.
Another data set concerns HepG2. Kind of data set: Cytotoxicity against human HepG2 cells after 24 hrs by celltiter-blue assay. It counts as functional, cell-based.
For another data set, the system named is Xanthomonas campestris. Kind of data set: Antimicrobial activity against Xanthomonas campestris DSM 2405. Type of data set: functional, organism-based.
The test system of another data set is Cutibacterium acnes. Kind of data set: Antimicrobial activity against Propionibacterium acnes DSM 1897. It counts as functional, organism-based.
Another data set relates to Escherichia coli. Kind of data set: Antimicrobial activity against Escherichia coli K-12 DSM 498. It counts as functional, organism-based.
A further data set relates to Bacillus subtilis. Kind of data set: Antimicrobial activity against Bacillus subtilis DSM 347. It counts as functional, organism-based.

pIC50: −log10 of the molar value. The source made the active and inactive calls. The calls are words filed in the database; no cut-off is given here.

As to `O=C1OCC(Cc2ccccc2)=C1c1ccccc1`, in the data set on Parastagonospora nodorum, the result was Active.

With `O=C1OCC(Cc2ccc(O)c(O)c2)=C1c1cc(O)cc(O)c1` [EUTYPOID E], the result (with Nakaseomyces glabratus; in the data set with Ralstonia solanacearum; in the data set with Pseudomonas aeruginosa; in data set [1]; in the data set on HT-29; with Erwinia amylovora) was inactive. Moreover, the outcome (in the data set with Zymoseptoria tritici; in the data set on Pseudomonas fluorescens; with Mammaliicoccus lentus; in data set [4]; in the data set on HepG2; with Xanthomonas campestris) was inactive. Further, the outcome in the data set with Cutibacterium acnes, in the data set on Escherichia coli and with Bacillus subtilis was inactive. Further, the Activity entry in data set [2] is given as “Non-toxic”. Moreover, in [3], the negative logarithm of the IC50 (pIC50) was 5.65.

As to `O=C1OCC(Cc2ccc(O)cc2)=C1c1ccc(O)cc1` [EUTYPOID B], the result (with Nakaseomyces glabratus; in the data set on Ralstonia solanacearum; with Pseudomonas aeruginosa; in data set [1]; in the data set on HT-29; in the data set with Erwinia amylovora) was inactive. Also, the result (in the data set on Zymoseptoria tritici; in the data set on Pseudomonas fluorescens; in the data set on Mammaliicoccus lentus; in [4]; with HepG2; with Xanthomonas campestris) was inactive. For the same compound, the result in the data set with Cutibacterium acnes, in the data set on Escherichia coli and in the data set on Bacillus subtilis was inactive. Besides, the Activity entry in [2] is “Non-toxic”. The pIC50 in data set [3] was 6.11.

As for `O=C1OCC(Cc2ccc(O)c(O)c2)=C1c1ccc(O)cc1` [EUTYPOID C], the outcome (in the data set on Nakaseomyces glabratus; in the data set on Ralstonia solanacearum; in the data set on Pseudomonas aeruginosa; in [1]; with HT-29; in the data set with Erwinia amylovora) was inactive. The outcome (in the data set on Zymoseptoria tritici; with Pseudomonas fluorescens; with Mammaliicoccus lentus; in data set [4]; with HepG2; in the data set with Xanthomonas campestris) was inactive. Further, the result with Cutibacterium acnes, with Escherichia coli and with Bacillus subtilis was inactive. Moreover, the Activity result in [2] was “Non-toxic”. This compound showed a negative-log IC50 (pIC50) in [3] of 6.17.

In the case of `O=C1OCC(Cc2ccc(O)cc2)=C1c1cc(O)cc(O)c1` [EUTYPOID D], the outcome (in the data set on Nakaseomyces glabratus; in the data set on Ralstonia solanacearum; in the data set on Pseudomonas aeruginosa; in [1]; with HT-29; in the data set on Erwinia amylovora) was inactive. Moreover, the outcome (in the data set with Zymoseptoria tritici; in the data set on Pseudomonas fluorescens; with Mammaliicoccus lentus; in data set [4]; with HepG2; in the data set on Xanthomonas campestris) was inactive. In addition, the result in the data set on Cutibacterium acnes, in the data set on Escherichia coli and in the data set with Bacillus subtilis was inactive. Further, in data set [2], the Activity entry was “Non-toxic”. Besides, the pIC50 in data set [3] was 5.39.
